The results in this text go back to patent US10537128B2, “Yeast, yeast extract containing gamma-Glu-Abu, and a method for producing the same” (AJINOMOTO CO., INC., priority 2010, dated 2020).

One data set concerns CaSR. As to the kind of experiment: CaSR agonist activity. To be noted: previously found by the inventors.
In data set [1] the test system is kokumi (initial taste, middle-after taste) scored by panelists. The data set is described as follows: quantitative organoleptic evaluation test of kokumi-imparting activity. It counts as in vivo, human. To be noted: for Intensity of kokumi, Initial taste: inosine monophosphate 0.05 g/dl, sodium chloride 0.5 g/dl; for Intensity of kokumi, Initial taste / Intensity of kokumi, Middle-after taste: score 0 control, 3 strong, 5 extremely strong, n=4. The method, then: Degree of kokumi-imparting activity of γ-Glu-Abu was investigated through a quantitative organoleptic evaluation test.
The quantitative organoleptic evaluation test was carried out as follows. Strength of the kokumi-imparting activity of a test compound was measured by using a mixture containing the test compound at 0.001 to 0.5 g/dl in distilled water containing sodium glutamate (0.05 g/dl), inosine monophosphate (0.05 g/dl), and sodium chloride (0.5 g/dl). A sample of the distilled water containing sodium glutamate, inosine monophosphate, and sodium chloride to which any test compound was not added was used as a no addition control. Samples that became acidic relative to the no addition control after dissolution of the test compound were used after pH of them was adjusted with NaOH to be within the range of ±0.2 from that of the no addition control.
The test was performed with organoleptic scores of 0 for the control, 3 for strong effect, and 5 for extremely strong effect, and n=4. Moreover, in order to make the criteria more definite, the scores of 0.001 g/dl of γ-Glu-Val-Gly for the initial taste and the middle-after taste were defined to be 3.0. The “middle-after taste” is a taste sensed in the periods for the middle taste and the aftertaste. Specifically, the initial taste, middle taste, and aftertaste are tastes sensed in the periods of 0 to 2 seconds, 2 to 5 seconds, and after 5 seconds, after eating, respectively, and the “middle-after taste” is a taste sensed in the period from 2 seconds to around 30 seconds. For the scoring, the linear scale method was used, in which determined scores were noted on a straight line on which positions of scores of from −5 to 5 were indicated. The panelists were consisted of persons who had experience of development of seasonings for foodstuffs for one year or longer in total, and could judge the difference of the titers of γ-Glu-Cys-Gly and γ-Glu-Val-Gly added to the tasty and salty solution to be about 10 times (this ability was periodically confirmed).
Kokumi-imparting activities of γ-Glu-Cys and other dipeptides were determined by the same quantitative organoleptic evaluation test as mentioned above.

A further data set is described as follows: storage stability. To be noted: compared with γ-Glu-Cys. It counts as physicochemical.
[2] abbreviates: 0.01 g/dl in distilled water with sodium glutamate 0.05 g/dl.
The mark [3] stands for this setting: 0.01 g/dl in the same tasty and salty solution.
The mark [4] stands for this setting: 0.2 g/dl in distilled water with sodium glutamate 0.05 g/dl.
[5] abbreviates: 0.2 g/dl in the same tasty and salty solution.

Chain of CaSR (P41180 20-1078): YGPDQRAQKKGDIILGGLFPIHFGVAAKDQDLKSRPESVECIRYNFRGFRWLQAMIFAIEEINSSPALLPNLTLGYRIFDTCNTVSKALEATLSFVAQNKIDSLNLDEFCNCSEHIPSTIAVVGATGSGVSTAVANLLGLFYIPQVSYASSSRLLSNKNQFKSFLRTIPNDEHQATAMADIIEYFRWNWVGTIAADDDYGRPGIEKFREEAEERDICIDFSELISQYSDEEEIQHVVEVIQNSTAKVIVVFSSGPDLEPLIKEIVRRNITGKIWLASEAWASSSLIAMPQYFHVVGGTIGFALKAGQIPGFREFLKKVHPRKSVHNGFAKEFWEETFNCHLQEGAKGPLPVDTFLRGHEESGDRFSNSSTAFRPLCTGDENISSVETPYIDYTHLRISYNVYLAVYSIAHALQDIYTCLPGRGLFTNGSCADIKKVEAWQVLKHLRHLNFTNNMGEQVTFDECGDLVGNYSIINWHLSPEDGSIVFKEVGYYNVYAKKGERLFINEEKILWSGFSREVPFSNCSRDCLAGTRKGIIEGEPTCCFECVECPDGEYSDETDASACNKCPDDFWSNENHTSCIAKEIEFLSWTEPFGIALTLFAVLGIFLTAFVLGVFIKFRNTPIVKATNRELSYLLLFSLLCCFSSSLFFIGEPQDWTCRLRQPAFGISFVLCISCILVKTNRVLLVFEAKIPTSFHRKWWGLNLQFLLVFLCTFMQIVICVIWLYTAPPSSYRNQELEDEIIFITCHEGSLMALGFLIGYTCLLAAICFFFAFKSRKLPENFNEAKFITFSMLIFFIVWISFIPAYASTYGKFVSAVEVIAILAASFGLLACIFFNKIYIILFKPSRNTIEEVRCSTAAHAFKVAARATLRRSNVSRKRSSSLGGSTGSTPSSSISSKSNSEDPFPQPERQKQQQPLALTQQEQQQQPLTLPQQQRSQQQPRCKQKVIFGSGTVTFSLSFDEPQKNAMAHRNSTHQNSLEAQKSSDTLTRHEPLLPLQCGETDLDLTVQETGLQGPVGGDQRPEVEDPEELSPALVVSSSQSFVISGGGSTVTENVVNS

As to “L-γ-glutamyl-L-2-aminobutyric acid [γ-Glu-Abu]”, the “CaSR agonist activity (in words)” value with CaSR is listed as “high CaSR agonist activity”. The “Intensity of kokumi, Initial taste” value in data set [1] (0.005 g/dl in distilled water with sodium glutamate 0.05 g/dl) came to 3.8. Moreover, the “Intensity of kokumi, Middle-after taste” value in data set [1] (0.005 g/dl in the same tasty and salty solution) turned out to be 3.2. The “kokumi-imparting activity (in words)” value in data set [1] (addition concentration range 0.001 to 0.5 g/dl) is listed as “showed kokumi-imparting activity in a broad range”. The “kokumi titer (in words)” value in data set [1] (compared with γ-Glu-Ala) is “extremely high titer”. In addition, the “storage stability (in words)” value in the data set “storage stability” is “superior storage stability”.

For `CC(C)[C@H](NC(=O)CC[C@H](N)C(=O)O)C(=O)O` [γ-Glu-Val], in data set [1] (setting [2]), the “Intensity of kokumi, Initial taste” value is listed as 3.1. Also, in data set [1] (setting [3]), the “Intensity of kokumi, Middle-after taste” value was 2.4.

As for `C[C@H](NC(=O)CC[C@H](N)C(=O)O)C(=O)O` [γ-Glu-Ala], the “Intensity of kokumi, Initial taste” value in data set [1] (setting [4]) was 4.5. In addition, in data set [1] (setting [5]), the “Intensity of kokumi, Middle-after taste” value was found to be 4.3.

As for `N[C@@H](CCC(=O)N[C@@H](CS)C(=O)O)C(=O)O` [γ-Glu-Cys, γ-glutamylcysteine], the “Intensity of kokumi, Initial taste” value in data set [1] (setting [2]) was determined as 3.1. Moreover, in data set [1] (setting [3]), the “Intensity of kokumi, Middle-after taste” value was found to be 3.1.

Turning to `N[C@@H](CCC(=O)N[C@@H](CO)C(=O)O)C(=O)O` [γ-Glu-Ser], in data set [1] (setting [4]), the “Intensity of kokumi, Initial taste” value came out at 3.6. Moreover, the “Intensity of kokumi, Middle-after taste” value in data set [1] (setting [5]) came out at 3.0.
